Columns and labels:
Assay in all cases: R-SAT broad profiling
Assay type in all cases: cell-based
m1 = biological target: T1, m1 (Homo sapiens, UniProt P11229); details: agonist; read-out: pEC50 or pIC50 (converted)
T1 construct: expressed in transfected cells; host or cells: NIH3T3
T1 sequence (P11229 1-460): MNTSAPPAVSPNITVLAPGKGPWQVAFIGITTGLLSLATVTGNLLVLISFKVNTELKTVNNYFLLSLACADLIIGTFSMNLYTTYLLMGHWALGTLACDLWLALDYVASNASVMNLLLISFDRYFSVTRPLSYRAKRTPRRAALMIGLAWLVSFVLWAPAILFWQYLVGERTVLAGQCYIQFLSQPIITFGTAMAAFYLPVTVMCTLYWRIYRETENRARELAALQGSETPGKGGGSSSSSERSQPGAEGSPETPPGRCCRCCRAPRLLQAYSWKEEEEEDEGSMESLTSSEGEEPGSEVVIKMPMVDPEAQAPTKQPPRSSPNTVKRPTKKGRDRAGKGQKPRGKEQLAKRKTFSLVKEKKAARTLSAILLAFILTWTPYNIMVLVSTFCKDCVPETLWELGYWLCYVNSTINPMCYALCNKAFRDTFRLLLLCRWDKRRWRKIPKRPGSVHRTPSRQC
Method: (§1) The functional receptor assay, Receptor Selection and Amplification Technology (R-SAT), was used (with minor modifications from that previously described U.S. Pat. No. 5,707,798) to screen compounds for efficacy at the 5-HT2A receptor. Briefly, NIH3T3 cells were grown in 96 well tissue culture plates to 70-80% confluence. Cells were transfected for 12-16 hours with plasmid DNAs using superfect (Qiagen Inc.) as per manufacture's protocols. R-SAT's were generally performed with 50 ng/well of receptor and 20 ng/well of Beta-galactosidase plasmid DNA. All receptor and G-protein constructs used were in the pSI mammalian expression vector (Promega Inc) as described in U.S. Pat. No. 5,707,798. The 5HT2A receptor gene was amplified by nested PCR from brain cDNA using the oligodeoxynucleotides based on the published sequence (see Saltzman et. al. Biochem. Biophys. Res. Comm. 181:1469-78 (1991)). Large-scale transfections, cells were transfected for 12-16 hours, then trypsinized and frozen in DMSO. Frozen cells were later thawed, plated at 10,000-40,000 cells per well of a 96 well plate that contained drug. With both methods, cells were then grown in a humidified atmosphere with 5% ambient CO2 for five days. Media was then removed from the plates and marker gene activity was measured by the addition of the beta-galactosidase substrate ONPG (in PBS with 5% NP-40). The resulting colorimetric reaction was measured in a spectrophotometric plate reader (Titertek Inc.)at […]. All data were analyzed using the computer program XLFit (IDBSm). Efficacy is the percent maximal repression compared to repression by a control compound (ritanserin in the case of 5HT2A). pIC50 is the negative of the log(IC50), where IC50 is the calculated concentration in Molar that produces 50% maximal repression.
(§2) The R-SAT assay (described above in example 289) was used to investigate the selectivity of 4-(4-Fluoro-benzyl)-3-(4-isobutoxy-benzyl)-8-methyl-1-oxa-3,8-diaza-spiro[4.5]decan-2-one.

m4 = biological target: T2, m4 (Homo sapiens, UniProt P08173); details: agonist; read-out: pEC50 or pIC50 (converted)
T2 construct: expressed in transfected cells; host or cells: NIH3T3
T2 sequence (P08173 1-479): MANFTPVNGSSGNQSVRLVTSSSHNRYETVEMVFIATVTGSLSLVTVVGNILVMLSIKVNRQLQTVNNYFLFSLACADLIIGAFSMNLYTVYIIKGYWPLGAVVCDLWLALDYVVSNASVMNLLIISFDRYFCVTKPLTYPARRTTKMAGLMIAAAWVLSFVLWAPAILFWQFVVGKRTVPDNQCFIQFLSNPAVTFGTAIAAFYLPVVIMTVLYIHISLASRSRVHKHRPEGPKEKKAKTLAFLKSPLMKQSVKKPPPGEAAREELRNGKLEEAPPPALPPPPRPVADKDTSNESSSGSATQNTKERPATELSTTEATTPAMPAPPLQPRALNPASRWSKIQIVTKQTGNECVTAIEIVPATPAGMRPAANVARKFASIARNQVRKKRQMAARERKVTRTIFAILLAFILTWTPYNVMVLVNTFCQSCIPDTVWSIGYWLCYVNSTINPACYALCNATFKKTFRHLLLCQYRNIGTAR
Method: as §1, §2

5HT6A = biological target: T3, 5HT6A (Homo sapiens, UniProt P50406); details: inverse; read-out: pEC50 or pIC50 (converted)
T3 construct: expressed in transfected cells; host or cells: NIH3T3
Method: as §1, §2

oprk 1 = biological target: T4, oprk 1 (Homo sapiens, UniProt P41145); details: read-out: pEC50 or pIC50 (converted)
T4 construct: expressed in transfected cells; host or cells: NIH3T3
Method: as §1, §2

5HT7A = biological target: T5, 5HT7A (Homo sapiens, UniProt P34969); details: read-out: pEC50 or pIC50 (converted)
T5 construct: expressed in transfected cells; host or cells: NIH3T3
Method: as §1, §2

alpha 2C = biological target: T6, alpha 2C (Homo sapiens, UniProt P18825); details: read-out: pEC50 or pIC50 (converted)
T6 construct: expressed in transfected cells; host or cells: NIH3T3
T6 sequence (P18825 1-462): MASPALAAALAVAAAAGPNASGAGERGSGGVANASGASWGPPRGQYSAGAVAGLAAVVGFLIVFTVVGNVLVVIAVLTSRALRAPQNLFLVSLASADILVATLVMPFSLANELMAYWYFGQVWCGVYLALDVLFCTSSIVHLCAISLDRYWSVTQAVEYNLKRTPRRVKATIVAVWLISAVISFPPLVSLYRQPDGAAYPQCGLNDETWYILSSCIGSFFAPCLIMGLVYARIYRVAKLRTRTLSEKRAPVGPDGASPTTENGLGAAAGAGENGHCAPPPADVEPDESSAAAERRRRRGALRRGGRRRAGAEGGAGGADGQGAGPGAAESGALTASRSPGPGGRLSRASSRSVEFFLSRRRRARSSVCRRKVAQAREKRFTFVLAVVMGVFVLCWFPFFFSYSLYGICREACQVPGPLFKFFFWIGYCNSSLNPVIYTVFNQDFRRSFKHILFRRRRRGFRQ
Method: as §1, §2

alpha 1B = biological target: T7, alpha 1B (Mesocricetus auratus, UniProt P18841); details: read-out: pEC50 or pIC50 (converted)
T7 construct: expressed in transfected cells; host or cells: NIH3T3
Method: as §1, §2

T7 sequence (P18841 whole entry): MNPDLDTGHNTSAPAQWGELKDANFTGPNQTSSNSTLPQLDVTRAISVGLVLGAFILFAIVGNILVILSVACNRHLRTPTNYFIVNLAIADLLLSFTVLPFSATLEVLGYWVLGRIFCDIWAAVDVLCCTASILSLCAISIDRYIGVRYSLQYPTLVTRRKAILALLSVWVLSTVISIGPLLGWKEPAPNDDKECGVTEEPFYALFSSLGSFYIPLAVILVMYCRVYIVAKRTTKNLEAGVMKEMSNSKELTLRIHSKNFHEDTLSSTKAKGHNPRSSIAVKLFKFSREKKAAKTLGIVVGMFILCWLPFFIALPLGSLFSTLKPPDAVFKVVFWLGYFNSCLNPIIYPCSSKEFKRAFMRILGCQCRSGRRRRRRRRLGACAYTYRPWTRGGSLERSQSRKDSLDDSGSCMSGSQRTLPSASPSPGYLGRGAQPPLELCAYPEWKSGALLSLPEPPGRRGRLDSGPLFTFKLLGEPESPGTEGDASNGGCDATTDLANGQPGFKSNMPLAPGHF
T5 sequence (P34969 1-445 isoform P34969-2): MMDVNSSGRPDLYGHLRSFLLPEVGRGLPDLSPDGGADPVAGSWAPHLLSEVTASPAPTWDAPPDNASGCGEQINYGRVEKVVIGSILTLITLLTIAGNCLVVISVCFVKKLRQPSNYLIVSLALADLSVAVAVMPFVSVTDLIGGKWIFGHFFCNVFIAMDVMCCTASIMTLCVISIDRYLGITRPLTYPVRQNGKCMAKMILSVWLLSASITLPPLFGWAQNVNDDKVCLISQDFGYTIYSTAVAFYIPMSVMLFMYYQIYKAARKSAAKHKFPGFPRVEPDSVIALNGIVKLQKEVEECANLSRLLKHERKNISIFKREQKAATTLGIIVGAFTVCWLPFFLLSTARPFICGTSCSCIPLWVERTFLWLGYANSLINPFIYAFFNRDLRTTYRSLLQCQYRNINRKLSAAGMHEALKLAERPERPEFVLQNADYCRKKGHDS
T4 sequence (P41145 whole entry): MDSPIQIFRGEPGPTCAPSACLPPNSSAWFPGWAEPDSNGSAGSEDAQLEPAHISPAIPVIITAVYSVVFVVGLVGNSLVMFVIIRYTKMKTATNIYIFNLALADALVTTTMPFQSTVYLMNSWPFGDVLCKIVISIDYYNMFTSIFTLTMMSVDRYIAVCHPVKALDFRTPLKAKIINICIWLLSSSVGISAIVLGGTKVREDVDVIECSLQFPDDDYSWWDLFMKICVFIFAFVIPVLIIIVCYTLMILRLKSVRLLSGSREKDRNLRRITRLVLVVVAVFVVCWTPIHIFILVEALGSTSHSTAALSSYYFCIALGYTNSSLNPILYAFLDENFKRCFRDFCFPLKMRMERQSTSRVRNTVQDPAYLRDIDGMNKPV
T3 sequence (P50406 whole entry): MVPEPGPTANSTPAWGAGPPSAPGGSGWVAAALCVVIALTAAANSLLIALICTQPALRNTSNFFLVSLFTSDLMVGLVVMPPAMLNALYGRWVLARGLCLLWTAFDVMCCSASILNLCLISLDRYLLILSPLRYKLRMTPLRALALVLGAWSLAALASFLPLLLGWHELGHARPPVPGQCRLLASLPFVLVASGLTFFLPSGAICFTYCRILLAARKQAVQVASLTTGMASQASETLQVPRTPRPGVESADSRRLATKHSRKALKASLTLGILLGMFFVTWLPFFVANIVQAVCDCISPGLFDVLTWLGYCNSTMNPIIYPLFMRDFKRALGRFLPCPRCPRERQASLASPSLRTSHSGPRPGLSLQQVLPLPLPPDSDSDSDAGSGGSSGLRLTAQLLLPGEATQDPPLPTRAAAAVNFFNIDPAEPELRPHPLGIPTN

CC(C)COc1ccc(CN2C(=O)OC3(CCN(C)CC3)C2Cc2ccc(F)cc2)cc1.Cl (racemic) [Example 69NLS75, 4-(4-Fluorobenzyl)-3-(4-isobutoxybenzyl)-8-methyl-1-oxa-3,8-diazaspiro[4.5]decan-2-one, hydrochloride]
> 3.16 µM: EC50 (m1) | EC50 (m4) | IC50 (5HT6A) | EC50 (oprk 1; agonist) | IC50 (oprk 1; antagonist) | EC50 (5HT7A; agonist) | IC50 (5HT7A; inverse) | EC50 (alpha 2C; agonist) | IC50 (alpha 2C; antagonist) | EC50 (alpha 1B; agonist) | IC50 (alpha 1B; antagonist)
